Source: patent US4925865A, “Antimycotic agents” (Bayer Aktiengesellschaft, priority 1987, dated 1990)
Converted amounts (≈) assume the structure as drawn.

Columns and labels:
Candida albicans = assay: Antimycotic in vitro activity, serial dilution test, Candida albicans; assay type: cell-based; conditions: meat extract/dextrose broth, 28-37° C., 24 to 96 hours
Method: (§1) The in vitro tests were carried out in the serial dilution test using inocula of microorganisms of approximately 5×10^3 to 10^4 microorganisms/ml of substrate. The nutrient medium used was (a) for dermatophytes and Blastomycetes: Sabouraud's test medium (b) for yeasts: meat extract/dextrose broth. The incubation temperature was 28° C. to 37° C., and the incubation period was 24 to 96 hours with yeasts and 96 hours with dermatophytes and Blastomycetes.

Aspergillus fumigatus = assay: Antimycotic in vitro activity, serial dilution test, Aspergillus fumigatus; assay type: cell-based; conditions: 28-37° C.
Method: as §1

[1] = test system: dermatophytes, Blastomycetes and yeasts; assay: Antimycotic in vitro activity, serial dilution test, overall comparison; assay type: cell-based
Method: as §1

Trichophyton mentagr. = assay: Antimycotic in vitro activity, serial dilution test, Trichophyton mentagr.; assay type: cell-based, Trichophyton mentagrophytes; conditions: Sabouraud's test medium, 28-37° C., 96 hours
Method: as §1

Torulopsis glabrata = assay: Antimycotic in vitro activity, serial dilution test, Torulopsis glabrata; assay type: cell-based; conditions: Nakaseomyces glabratus; 28-37° C., 24 to 96 hours
Method: as §1

Microsporum canis = assay: Antimycotic in vitro activity, serial dilution test, Microsporum canis; assay type: cell-based; conditions: Sabouraud's test medium, 28-37° C., 96 hours
Method: as §1

Candida = assay: Antimycotic in vivo activity (oral) in mouse candidiasis; parameters: species or system mouse (SPF-CF1 type); conditions: for action compared with compounds (A) and (B): oral 10-100 mg/kg; for Action (survival on the 6th day post infection): oral 10-100 mg/kg one hour before and seven hours after i.v. inoculation
Method: Mice of the SPF-CF1 type were intravenously inoculated with 1-2×10^6 logarithmically growing Candida cells, suspended in physiological saline solution. One hour before and seven hours after the inoculation, the animals are in each case orally treated with 10-100 mg/kg of body weight of the preparation. Untreated animals died 3 to 6 days post infection. The survival rate on the 6th day post infection was about 5% in untreated control animals.

mycoses = conditions: compare EP-OS No.0,180,850; cited from earlier work

Compound | MIC (Candida albicans) [µg/mL] | MIC (Aspergillus fumigatus) [µg/mL] | MIC (Trichophyton mentagr.) [µg/mL] | MIC (Torulopsis glabrata) [µg/mL] | MIC (Microsporum canis) [µg/mL] | antimycotic activity compared with compounds (A) and (B) [1] | action compared with compounds (A) and (B) (Candida) | Action (survival on the 6th day post infection) (Candida) | antimycotic properties (mycoses)
CC(C)SC1(C(O)(CCc2ccc(Cl)cc2)Cn2cncn2)CC1 (stereo not drawn) [Compound I-8] | 8 (≈ 21.9 µM) | 4 (≈ 10.9 µM) | 2 (≈ 5.47 µM) | 32 (≈ 87.4 µM) | – | better antimycotic activity than the compounds (A) and (B) | – | – | –
CSC1(C(O)(CCc2ccc(Cl)cc2)Cn2cncn2)CC1 (stereo not drawn) [Compound I-6] | 4 (≈ 11.8 µM) | < 1 | < 1 | 16 (≈ 47.4 µM) | 2 (≈ 5.92 µM) | better antimycotic activity than the compounds (A) and (B) | better action than the compounds (A) and (B) | +++ (action = 60% survival on the 6th day post infection) | –
OC(Cn1cncn1)(c1ccc(Cl)cc1)C1(F)CC1 (stereo not drawn) [(A), 1-(4-chlorophenyl)-1-(1-fluoro-cycloprop-1-yl)-2-(1,2,4-triazol-1-yl)-ethan-1-ol, reference compound] | > 64 | > 64 | > 64 | – | – | – | – | – | exhibit antimycotic properties
Cc1ccc(CCC(O)(Cn2cncn2)C2(Cl)CC2)cc1 (stereo not drawn) [Compound I-20] | 4 (≈ 13.1 µM) | < 1 | < 1 | 2 (≈ 6.54 µM) | 2 (≈ 6.54 µM) | better antimycotic activity than the compounds (A) and (B) | – | – | –
CSC1(C(O)(C=Cc2ccc(Cl)cc2)Cn2cncn2)CC1 (stereo not drawn) [Compound I-13] | 2 (≈ 5.95 µM) | < 1 | < 1 | 2 (≈ 5.95 µM) | 4 (≈ 11.9 µM) | better antimycotic activity than the compounds (A) and (B) | better action than the compounds (A) and (B) | +++++ (very good action = 90% survival on the 6th day post infection) | –
CCSC1(C(O)(CCc2ccc(Cl)cc2Cl)Cn2cncn2)CC1 (stereo not drawn) [Compound I-9] | 4 (≈ 10.4 µM) | 16 (≈ 41.4 µM) | 8 (≈ 20.7 µM) | 16 (≈ 41.4 µM) | – | better antimycotic activity than the compounds (A) and (B) | – | – | –
CCCSC1(C(O)(/C=C/c2ccc(Cl)cc2Cl)Cn2cncn2)CC1 (stereo not drawn) [Compound I-3, trans-4-(2,4-dichlorophenyl)-2-(1-propylmercaptocyclopropyl)1-(1,2,4-triazol-1-yl)-but-3-en-2-ol] | 4 (≈ 10 µM) | 16 (≈ 40.2 µM) | 8 (≈ 20.1 µM) | 4 (≈ 10 µM) | – | better antimycotic activity than the compounds (A) and (B) | – | – | –
CC(C)(CCC(O)(Cn1cncn1)C1(Cl)CC1)Cc1ccc(Cl)cc1 (stereo not drawn) [Compound I-17] | < 1 | 4 (≈ 10.5 µM) | 2 (≈ 5.23 µM) | 2 (≈ 5.23 µM) | – | better antimycotic activity than the compounds (A) and (B) | – | – | –
CCSC1(C(O)(C=Cc2ccc(Cl)cc2Cl)Cn2cncn2)CC1 (stereo not drawn) [Compound I-16] | 8 (≈ 20.8 µM) | 4 (≈ 10.4 µM) | < 1 | < 1 | < 1 | better antimycotic activity than the compounds (A) and (B) | – | – | –
OC(CCc1ccc(F)cc1)(Cn1cncn1)C1(Cl)CC1 (stereo not drawn) [Compound I-12] | 8 (≈ 25.8 µM) | < 1 | < 1 | 32 (≈ 103 µM) | 4 (≈ 12.9 µM) | better antimycotic activity than the compounds (A) and (B) | – | – | –
OC(CCc1ccc(Cl)cc1Cl)(Cn1cncn1)C1(Cl)CC1 (stereo not drawn) [Compound I-22] | 2 (≈ 5.55 µM) | < 1 | < 1 | 2 (≈ 5.55 µM) | 4 (≈ 11.1 µM) | better antimycotic activity than the compounds (A) and (B) | – | – | –
OC(CCc1ccc(Cl)cc1)(Cn1cncn1)C1(Cl)CC1 (stereo not drawn) [Compound I-1, 2-(1-chlorocyclopropyl)-4-(4-chlorophenyl)-1-(1,2,4-triazol-1-yl)-butan-2-ol] | 2 (≈ 6.13 µM) | < 1 | < 1 | < 1 | < 1 | better antimycotic activity than the compounds (A) and (B) | better action than the compounds (A) and (B) | +++ (action = 60% survival on the 6th day post infection) | –
OC(CCc1ccccc1)(Cn1cncn1)C1(Cl)CC1 (stereo not drawn) [Compound I-23] | 4 (≈ 13.7 µM) | < 1 | < 1 | 8 (≈ 27.4 µM) | 2 (≈ 6.85 µM) | better antimycotic activity than the compounds (A) and (B) | – | – | –
OC(CCc1ccc(Cl)cc1)(Cn1cncn1)C1(SCc2ccccc2)CC1 (stereo not drawn) [Compound I-10] | 2 (≈ 4.83 µM) | 64 (≈ 155 µM) | < 1 | 4 (≈ 9.66 µM) | 8 (≈ 19.3 µM) | better antimycotic activity than the compounds (A) and (B) | – | – | –
OC(CCc1ccccc1Cl)(Cn1cncn1)C1(Cl)CC1 (stereo not drawn) [Compound I-19] | 4 (≈ 12.3 µM) | 2 (≈ 6.13 µM) | < 1 | 16 (≈ 49 µM) | 2 (≈ 6.13 µM) | better antimycotic activity than the compounds (A) and (B) | – | – | –
OC(CCc1ccc(OC(F)(F)F)cc1)(Cn1cncn1)C1(Cl)CC1 (stereo not drawn) [Compound I-24] | 16 (≈ 42.6 µM) | < 1 | < 1 | 4 (≈ 10.6 µM) | 4 (≈ 10.6 µM) | better antimycotic activity than the compounds (A) and (B) | – | – | –

Further lines, with some results ahead:

MIC (Candida albicans) [µg/mL] | MIC (Aspergillus fumigatus) [µg/mL] | MIC (Trichophyton mentagr.) [µg/mL] | MIC (Torulopsis glabrata) [µg/mL] | MIC (Microsporum canis) [µg/mL] | Compound | antimycotic activity compared with compounds (A) and (B) [1] | action compared with compounds (A) and (B) (Candida) | Action (survival on the 6th day post infection) (Candida) | antimycotic properties (mycoses)
4 (≈ 14.8 µM) | 8 (≈ 29.7 µM) | < 1 | 4 (≈ 14.8 µM) | 4 (≈ 14.8 µM) | CC(C)(C)C=CC(O)(Cn1cncn1)C1(Cl)CC1 (stereo not drawn) [Compound I-38] | better antimycotic activity than the compounds (A) and (B) | – | – | –
4 (≈ 10.3 µM) | < 1 | 2 (≈ 5.17 µM) | 4 (≈ 10.3 µM) | – | OC(C=Cc1ccc(F)c(Br)c1)(Cn1cncn1)C1(Cl)CC1 (stereo not drawn) [Compound I-34] | better antimycotic activity than the compounds (A) and (B) | better action than the compounds (A) and (B) | +++ (action = 60% survival on the 6th day post infection) | –
8 (≈ 21.4 µM) | < 1 | < 1 | < 1 | < 1 | OC(C=Cc1ccc(OC(F)(F)F)cc1)(Cn1cncn1)C1(Cl)CC1 (stereo not drawn) [Compound I-33] | better antimycotic activity than the compounds (A) and (B) | better action than the compounds (A) and (B) | +++++ (very good action = 90% survival on the 6th day post infection) | –
< 1 | < 1 | < 1 | < 1 | < 1 | Cc1ccc(C=CC(O)(Cn2cncn2)C2(Cl)CC2)cc1 (stereo not drawn) [Compound I-28] | better antimycotic activity than the compounds (A) and (B) | – | – | –
16 (≈ 54.1 µM) | 2 (≈ 6.76 µM) | 2 (≈ 6.76 µM) | 16 (≈ 54.1 µM) | – | OC(C=CC1CCCCC1)(Cn1cncn1)C1(Cl)CC1 (stereo not drawn) [Compound I-39] | better antimycotic activity than the compounds (A) and (B) | – | – | –
16 (≈ 44.6 µM) | < 1 | < 1 | 8 (≈ 22.3 µM) | < 1 | OC(C=Cc1ccc(Cl)cc1Cl)(Cn1cncn1)C1(Cl)CC1 (stereo not drawn) [Compound I-29] | better antimycotic activity than the compounds (A) and (B) | better action than the compounds (A) and (B) | +++ (action = 60% survival on the 6th day post infection) | –
4 (≈ 13.8 µM) | 2 (≈ 6.9 µM) | < 1 | 8 (≈ 27.6 µM) | 4 (≈ 13.8 µM) | OC(C=Cc1ccccc1)(Cn1cncn1)C1(Cl)CC1 (stereo not drawn) [Compound I-32] | better antimycotic activity than the compounds (A) and (B) | – | – | –
< 1 | < 1 | < 1 | 2 (≈ 5.44 µM) | 2 (≈ 5.44 µM) | OC(CCc1ccc(-c2ccccc2)cc1)(Cn1cncn1)C1(Cl)CC1 (stereo not drawn) [Compound I-25] | better antimycotic activity than the compounds (A) and (B) | – | – | –
2 (≈ 5.43 µM) | < 1 | < 1 | 4 (≈ 10.9 µM) | < 1 | OC(C=Cc1ccc(Br)cc1)(Cn1cncn1)C1(Cl)CC1 (stereo not drawn) [Compound I-30] | better antimycotic activity than the compounds (A) and (B) | better action than the compounds (A) and (B) | +++++ (very good action = 90% survival on the 6th day post infection) | –
8 (≈ 24.7 µM) | 2 (≈ 6.17 µM) | < 1 | 8 (≈ 24.7 µM) | 4 (≈ 12.3 µM) | OC(C=Cc1ccccc1Cl)(Cn1cncn1)C1(Cl)CC1 (stereo not drawn) [Compound I-31] | better antimycotic activity than the compounds (A) and (B) | – | – | –
